Assay results as given in PMC7717600, “Novel [(N-alkyl-3-indolylmethylene)hydrazono]oxindoles arrest cell cycle and induce cell apoptosis by inhibiting CDK2 and Bcl-2: synthesis, biological evaluation and in silico studies” (Journal of Enzyme Inhibition and Medicinal Chemistry, 2020).
Like-named read-outs stand apart in the source and are kept apart here.

Columns and labels:
HCC-2998 = assay: NCI SRB screening; type: cell-based, human
LOX IMVI = assay: NCI SRB screening; type: cell-based, human
M14 = assay: NCI SRB screening; type: cell-based
MDA-MB-435 = assay: NCI SRB screening; type: cell-based
PC-3 = assay: NCI SRB screening; type: cell-based, human
A-549 = assay: SRB anti-proliferative assay; type: cell-based; conditions: Homo sapiens, A549; A-549, SRB, mean ± SE of 3
Description: Staurosporine, a clinically used antitumor drug, was co-assayed as a reference agent for the experiment.
Examination of the cytotoxic activity for the target conjugates was carried out in accordance with the SRB colorimetric assay protocol, as described previously.
In vitro anti-proliferative activity assay
Cells at a concentration of 0.50 x
Sulfo-Rhodamine-B stain (SRB) assay.
cell to the wall of the plate.
wells were prepared for each individual dose).
Unbound dye was removed by four

RPMI-8226 = conditions: for TGI: RPMI-8226
HOP-92 = conditions: for TGI: HOP-92
NCI-H226 = conditions: for TGI: NCI-H226
NCI-H522 = conditions: for TGI: NCI-H522
HCT-15 = conditions: for TGI: HCT-15
KM12 = conditions: for TGI: KM12
SF-268 = conditions: for TGI: SF-268
SF-295 = conditions: for TGI: SF-295
SF-539 = conditions: for TGI: SF-539
SNB-19 = conditions: for TGI: SNB-19
SNB-75 = conditions: for TGI: SNB-75
U251 = conditions: for TGI: U251

Compound: CCCn1cc(C=NN=C2C(=O)Nc3ccc(C)cc32)c2ccccc21 [Compound 8a]
- TGI (HCC-2998; HCC-2998): 5.14 µM
- GI % (HCC-2998; HCC-2998, 10 μM): 53%
- Growth Percent (HCC-2998; HCC-2998, 1.00E-5 Molar): 46.95%
- TGI (HCC-2998; HCC-2998, listed as D - 795311 / 1): 5.14E-6 Molar
- GI50 (HCC-2998; Homo sapiens, HCC-2998): 2.09 µM
- TGI (LOX IMVI): 3.06 µM
- Growth Percent (LOX IMVI; 1.00E-5 Molar): 4.42%
- GI50 (LOX IMVI; Homo sapiens): 1.26 µM
- TGI (LOX IMVI; listed as D - 795311 / 1): 3.06E-6 Molar
- GI50 (M14; Homo sapiens, M14): 1.92 µM
- TGI (M14; M14): 4.70 µM
- GI % (M14; M14, 10 μM): 44%
- Growth Percent (M14; M14, 1.00E-5 Molar): 56.29%
- TGI (M14; M14, listed as D - 795311 / 1): 4.70E-6 Molar
- GI50 (MDA-MB-435; Homo sapiens, MDA-MB-435): 1.5 µM
- TGI (MDA-MB-435; MDA-MB-435): 2.96 µM
- GI % (MDA-MB-435; MDA-MB-435, 10 μM): 127%
- Growth Percent (MDA-MB-435; MDA-MB-435, 1.00E-5 Molar): -26.64%
- TGI (MDA-MB-435; MDA-MB-435, listed as D - 795311 / 1): 2.96E-6 Molar
- GI50 (PC-3; Homo sapiens, PC-3): 1.83 µM
- TGI (PC-3; PC-3): 5.17 µM
- GI % (PC-3; PC-3, 10 μM): 82%
- Growth Percent (PC-3; PC-3, 1.00E-5 Molar): 17.96%
- TGI (PC-3; PC-3, listed as D - 795311 / 1): 5.17E-6 Molar
- IC50 (A-549): 7.3 ± 0.42 µM
- TGI (CCRF-CEM): >100 µM
- GI % (CCRF-CEM; 10 μM): 101%
- Growth Percent (CCRF-CEM; 1.00E-5 Molar): -0.65%
- TGI (CCRF-CEM; listed as D - 795311 / 1): > 1.00E-4 Molar
- TGI (HL-60(TB); HL60(TB)): 4.80 µM
- TGI (HL-60(TB); HL-60(TB)): 4.80E-6 Molar
- GI % (HL-60(TB); HL-60(TB), 10 μM): 123%
- Growth Percent (HL-60(TB); HL-60(TB), 1.00E-5 Molar): -22.61%
- TGI (RPMI-8226): 3.96 µM
- GI % (RPMI-8226; RPMI-8226, 10 μM): 125%
- Growth Percent (RPMI-8226; RPMI-8226, 1.00E-5 Molar): -24.86%
- TGI (RPMI-8226; listed as D - 795311 / 1): 3.96E-6 Molar
- GI50 (SR): 0.52 µM
- TGI (SR): 8.72 µM
- GI % (SR; 10 μM): 89%
- Growth Percent (SR; 1.00E-5 Molar): 11.60%
- TGI (SR; listed as D - 795311 / 1): 8.72E-6 Molar
- TGI (A549/ATCC): 39.6 µM
- GI % (A549/ATCC; 10 μM): 36%
- Growth Percent (A549/ATCC; 1.00E-5 Molar): 63.93%
- TGI (A549/ATCC; listed as D - 795311 / 1): 3.96E-5 Molar
- TGI (HOP-92): 6.57 µM
- GI % (HOP-92; HOP-92, 10 μM): 63%
- Growth Percent (HOP-92; HOP-92, 1.00E-5 Molar): 37.42%
- TGI (HOP-92; listed as D - 795311 / 1): 6.57E-6 Molar
- TGI (NCI-H226): 20.6 µM
- Growth Percent (NCI-H226; NCI-H226, 1.00E-5 Molar): 92.04%
- TGI (NCI-H226; listed as D - 795311 / 1): 2.06E-5 Molar
- TGI (NCI-H522): 6.59 µM
- GI % (NCI-H522; NCI-H522, 10 μM): 86%
- Growth Percent (NCI-H522; NCI-H522, 1.00E-5 Molar): 13.81%
- TGI (NCI-H522; listed as D - 795311 / 1): 6.59E-6 Molar
- TGI (HCT-15): 42.2 µM
- GI % (HCT-15; HCT-15, 10 μM): 77%
- Growth Percent (HCT-15; HCT-15, 1.00E-5 Molar): 23.04%
- TGI (HCT-15; listed as D - 795311 / 1): 4.22E-5 Molar
- TGI (KM12): 19.7 µM
- GI % (KM12; KM12, 10 μM): 40%
- Growth Percent (KM12; KM12, 1.00E-5 Molar): 59.92%
- TGI (KM12; listed as D - 795311 / 1): 1.97E-5 Molar
- TGI (SF-268): 28.0 µM
- GI % (SF-268; SF-268, 10 μM): 54%
- Growth Percent (SF-268; SF-268, 1.00E-5 Molar): 46.59%
- TGI (SF-268; listed as D - 795311 / 1): 2.80E-5 Molar
- TGI (SF-295): 96.6 µM
- GI % (SF-295; SF-295, 10 μM): 29%
- Growth Percent (SF-295; SF-295, 1.00E-5 Molar): 71.12%
- TGI (SF-295; listed as D - 795311 / 1): 9.66E-5 Molar
- TGI (SF-539): 17.1 µM
- GI % (SF-539; SF-539, 10 μM): 66%
- Growth Percent (SF-539; SF-539, 1.00E-5 Molar): 33.94%
- TGI (SF-539; listed as D - 795311 / 1): 1.71E-5 Molar
- TGI (SNB-19): >100 µM
- GI % (SNB-19; SNB-19, 10 μM): 37%
- Growth Percent (SNB-19; SNB-19, 1.00E-5 Molar): 63.34%
- TGI (SNB-19; listed as D - 795311 / 1): > 1.00E-4 Molar
- TGI (SNB-75): 46.0 µM
- GI % (SNB-75; SNB-75, 10 μM): 15%
- Growth Percent (SNB-75; SNB-75, 1.00E-5 Molar): 85.63%
- TGI (SNB-75; listed as D - 795311 / 1): 4.60E-5 Molar
- TGI (U251): 17.3 µM
- GI % (U251; U251, 10 μM): 60%
- Growth Percent (U251; U251, 1.00E-5 Molar): 39.96%
- TGI (U251; listed as D - 795311 / 1): 1.73E-5 Molar
- TGI (MALME-3M): 6.03 µM
- GI % (MALME-3M; 10 μM): 49%
- Growth Percent (MALME-3M; 1.00E-5 Molar): 51.68%
